# Measured values reported in US9796700B2 (Celgene CAR LLC, priority 2013, dated 2017).
# How the values were obtained:
# Erk1 = Erk1 (Homo sapiens (Human), UniProt P27361); assay: Protein Mass Modification Assay (intact protein MALDI); assay type: binding
# How it was run: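 Human Erk1 was incubated 60 min at room temperature with a 10-fold molar excess of compound, then analysed as intact protein by MALDI with sinapinic acid matrix. The centroid mass shift versus untreated protein was divided by compound molecular weight to give percent modified protein.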
# MEK1 activated ERK1 = MEK1 activated ERK1 (Homo sapiens (Human), UniProt P27361); assay: Omnia continuous-read kinase assay for potency against MEK1 activated ERK1; assay type: biochemical; details: MEK1 activated ERK1, WT, ATP at KM
# MEK1 activated ERK1, sequence (P27361 whole entry): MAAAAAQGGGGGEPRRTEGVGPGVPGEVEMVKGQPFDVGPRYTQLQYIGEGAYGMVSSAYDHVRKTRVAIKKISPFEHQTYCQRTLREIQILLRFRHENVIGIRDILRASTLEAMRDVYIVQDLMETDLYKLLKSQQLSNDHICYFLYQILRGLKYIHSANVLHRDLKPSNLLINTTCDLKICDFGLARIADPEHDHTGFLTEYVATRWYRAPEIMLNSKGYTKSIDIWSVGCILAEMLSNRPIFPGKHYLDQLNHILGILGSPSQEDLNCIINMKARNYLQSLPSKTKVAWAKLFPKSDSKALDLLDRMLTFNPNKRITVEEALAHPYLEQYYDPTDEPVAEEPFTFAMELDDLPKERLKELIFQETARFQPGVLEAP
# How it was run: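 Apparent IC50 came from initial reaction slopes (RFU vs time) plotted against log inhibitor with a variable-slope fit. Reactions were started with ERK1 (4 nM final) added to 50 μM ATP, roughly at its appKM, and 10 μM Sox-conjugated ST17 peptide in 20 mM Tris pH 7.5, 5 mM MgCl2. Fluorescence was monitored every 71 seconds.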
# Erk1, sequence (P27361 whole entry, looked up): as the sequence (P27361 whole entry) above
ERK1 Mass Mod (%) (Erk1),IC50 (MEK1 activated ERK1) [nM],SMILES
E (provided a mass modification of ≧70%),> 1000,"C=CC(=O)Nc1ccccc1Nc1nc(Nc2cc(OC)nc(N3CCN(S(C)(=O)=O)CC3)c2)ncc1C(F)(F)F [Compound I-290, N-(2-((2-((2-Methoxy-6-(4-(methylsulfonyl)piperazin-1-yl)pyridin-4-yl)amino)-5-(trifluoromethyl)pyrimidin-4-yl)amino)phenyl)acrylamide]"
E (provided a mass modification of ≧70%),< 100,"C=CC(=O)Nc1ccccc1Nc1nc(Nc2cc(OC)nc(N3CCS(=O)(=O)CC3)c2)ncc1C(F)(F)F [Compound I-291, N-(2-((2-((2-(1,1-Dioxidothiomorpholino)-6-methoxypyridin-4-yl)amino)-5-(trifluoromethyl)pyrimidin-4-yl)amino)phenyl)acrylamide]"
E (provided a mass modification of ≧70%),< 100,"C=CC(=O)Nc1cc(C)ccc1Nc1nc(Nc2cc(OC)nc(N3CCN(C(C)=O)CC3)c2)ncc1Cl [Compound I-296, N-(2-((2-((2-(4-acetylpiperazin-1-yl)-6-methoxypyridin-4-yl)amino)-5-chloropyrimidin-4-yl)amino)-5-methylphenyl)acrylamide]"
E (provided a mass modification of ≧70%),< 100,"C=CC(=O)Nc1cc(OC)ccc1Nc1nc(Nc2cc(OC)nc(N3CCN(C(C)=O)CC3)c2)ncc1Cl [Compound I-297, N-(2-((2-((2-(4-acetylpiperazin-1-yl)-6-methoxypyridin-4-yl)amino)-5-chloropyrimidin-4-yl)amino)-5-methoxyphenyl)acrylamide]"
G (proived a mass modification ≦30%),> 1000,"C=CC(=O)Nc1cccc(Nc2nc(Nc3ccc(N4CCN(C(C)=O)CC4)cc3OC)ncc2Cl)c1 [Compound I-298, N-(3-((2-((4-(4-acetylpiperazin-1-yl)-2-methoxyphenyl)amino)-5-chloropyrimidin-4-yl)amino)phenyl)acrylamide]"
G (proived a mass modification ≦30%),> 1000,"COc1cc(N2CCOCC2)ccc1Nc1ncc(N)c(Nc2ccccc2N)n1 [Compound I-312, N^4-(2-aminophenyl)-N^2-(2-methoxy-4-morpholinophenyl)pyrimidine-2,4,5-triamine]"
G (proived a mass modification ≦30%),> 1000,"CCC(=O)Nc1ccccc1Nc1nc(Nc2ccc3c(c2OC)CCCC(=O)N3CC)ncc1Cl [Compound I-315, N-(2-((5-chloro-2-((1-ethyl-6-methoxy-2-oxo-2,3,4,5-tetrahydro-1H-benzo[b]azepin-7-yl)amino)pyrimidin-4-yl)amino)phenyl)propionamide]"

# Further lines, the compound ahead of its results:
SMILES,ERK1 Mass Mod (%) (Erk1),IC50 (MEK1 activated ERK1) [nM]
"C=CC(=O)Nc1cc(OC)ccc1Nc1nc(Nc2cc(OC)ncc2C)ncc1C(F)(F)F [Compound I-284, N-(5-Methoxy-2-((2-((2-methoxy-5-methylpyridin-4-yl)amino)-5-(trifluoromethyl)pyrimidin-4-yl)amino)phenyl)acrylamide]",E (provided a mass modification of ≧70%),< 100
"C=CC(=O)Nc1ccccc1Nc1nc(Nc2cc(NCCOC)nc(OC)c2)ncc1C(F)(F)F [Compound I-286, N-(2-((2-((2-Methoxy-6-((2-methoxyethyl)amino)pyridin-4-yl)amino)-5-(trifluoromethyl)pyrimidin-4-yl)amino)phenyl)acrylamide]",E (provided a mass modification of ≧70%),< 100
"C=CC(=O)Nc1cc(Cl)ccc1Nc1nc(Nc2cc(OC)ncc2C)ncc1C(F)(F)F [Compound I-289, N-(5-Chloro-2-((2-((2-methoxy-5-methylpyridin-4-yl)amino)-5-(trifluoromethyl)pyrimidin-4-yl)amino)phenyl)acrylamide]",E (provided a mass modification of ≧70%),< 100
"C=CC(=O)Nc1ccccc1Nc1nc(Nc2ccc(OCCCNC(=O)CCCC(=O)NCCCOCCOCCOCCCNC(=O)CCCC[C@H]3SC[C@H]4NC(=O)N[C@H]43)cc2OC)ncc1Cl [Compound I-302, N^1-(3-(4-((4-((2-acrylamidophenyl)amino)-5-chloropyrimidin-2-yl)amino)-3-methoxyphenoxy)propyl)-N^5-(15-oxo-19-((3aR,4R,6aS)-2-oxohexahydro-1H-thieno[3,4-d]imidazol-4-yl)-4,7,10-trioxa-14-azanonadecyl)glutaramide]",E (provided a mass modification of ≧70%),> 1000
"C=CC(=O)Nc1ccccc1Nc1nc(N[C@H]2CCCN(C(=O)CCCC(=O)NCCCOCCOCCOCCCNC(=O)CCCC[C@@H]3SC[C@@H]4NC(=O)N[C@@H]43)C2)ncc1Cl [Compound I-303, 5-((S)-3-((4-((2-acrylamidophenyl)amino)-5-chloropyrimidin-2-yl)amino)piperidin-1-yl)-5-oxo-N-(15-oxo-19-((3aS,4S,6aR)-2-oxohexahydro-1H-thieno[3,4-d]imidazol-4-yl)-4,7,10-trioxa-14-azanonadecyl)pentanamide]",E (provided a mass modification of ≧70%),> 1000
"NC(=O)c1ccccc1Nc1nc(N[C@H]2CCCN(C(=O)CO)C2)ncc1C(F)(F)F [Compound I-307, (S)-2-((2-((1-(2-hydroxyacetyl)piperidin-3-yl)amino)-5-(trifluoromethyl)pyrimidin-4-yl)amino)benzamide]",G (proived a mass modification ≦30%),< 100
"CC(=O)N1CCC[C@H](Nc2ncc(C(F)(F)F)c(N[C@@H]3[C@H](C(N)=O)[C@H]4C=C[C@@H]3C4)n2)C1 [Compound I-309, (1R,2R,3S,4S)-3-((2-(((S)-1-acetylpiperidin-3-yl)amino)-5-(trifluoromethyl)pyrimidin-4-yl)amino)bicyclo[2.2.1]hept-5-ene-2-carboxamide]",G (proived a mass modification ≦30%),> 1000
"CC(C)S(=O)(=O)c1ccccc1Nc1nc(N[C@H]2CCCN(C(=O)CO)C2)ncc1C(F)(F)F [Compound I-310, (S)-2-hydroxy-1-(3-((4-((2-(isopropylsulfonyl)phenyl)amino)-5-(trifluoromethyl)pyrimidin-2-yl)amino)piperidin-1-yl)ethanone]",G (proived a mass modification ≦30%),< 100
"CCC(=O)Nc1ccccc1Nc1nc(Nc2ccc3c(c2)CCCC(=O)N3CCCN)ncc1Cl [Compound I-314, N-(2-((2-((1-(3-aminopropyl)-2-oxo-2,3,4,5-tetrahydro-1H-benzo[b]azepin-7-yl)amino)-5-chloropyrimidin-4-yl)amino)phenyl)propionamide]",G (proived a mass modification ≦30%),< 100
"CCC(=O)Nc1ccccc1Nc1nc(N[C@H]2CCCN(C(C)=O)C2)ncc1C(F)(F)F [Compound I-317, (S)—N-(2-((2-((1-acetylpiperidin-3-yl)amino)-5-(trifluoromethyl)pyrimidin-4-yl)amino)phenyl)propionamide]",G (proived a mass modification ≦30%),< 100
"CCC(=O)Nc1ccccc1Nc1nc(N[C@H]2CCCN(C(=O)CO)C2)ncc1C(F)(F)F [Compound I-318, (S)—N-(2-((2-((1-(2-hydroxyacetyl)piperidin-3-yl)amino)-5-(trifluoromethyl)pyrimidin-4-yl)amino)phenyl)propionamide]",G (proived a mass modification ≦30%),< 100
